Patent US20250195530A1, “POLQ INHIBITORS” (ASTRAZENECA AB, priority 2022, published 2025)

How the values were obtained:
DLD-1 BRCA2−/− cells = assay: Homologous recombination synthetic lethal inhibition of proliferation, DLD-1 BRCA2-/- (Cell Titre Glo 3D); format: cell-based; settings: Homo sapiens, DLD-1, 288 h, DLD-1 BRCA2−/− cells, 12 days; read-out: POLQ PD Prolif Lumin BRCA2 −/− mean pIC50 (converted)
Method in brief: (§1)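 Read-out: CellTiter-Glo 3D luminescence, day 7 for wt DLD-1, day 12 for BRCA2−/−, about 8-9 population doublings each. Seeding 1,500 or 3,000 cells/mL respectively. Dose range 10 μM–0.51 nM, 3-fold, 10 points, with re-dosing on day 6. IC50 from curve fit.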

DLD-1 cells = assay: Inhibition of proliferation, DLD-1 BRCA2 wt control (Cell Titre Glo 3D); format: cell-based; settings: Homo sapiens, DLD-1, 168 h, DLD-1 BRCA2 wt cells, 7 days; read-out: POLQ PD Prolif Lumin DLD1 mean pIC50 (converted)
Method in brief: as §1

Row | SMILES | IC50 (DLD-1 BRCA2−/− cells) [nM] | IC50 (DLD-1 cells) [nM]
1 | CC1(Oc2ncnc3c2nc(-c2ccc(N4CCC(N)CC4)cc2Cl)n3Cc2ccccc2)CC1 [Example M2, 1-(4-(9-benzyl-6-(1-methylcyclopropoxy)-9H-purin-8-yl)-3-chlorophenyl)piperidin-4-amine] | 316 | 5010
2 | CC1(Oc2ncnc3c2nc(-c2ccc(N4CCNC(=O)C4)cc2Cl)n3Cc2ccccc2)CC1 [Example M3, 4-(4-(9-benzyl-6-(1-methylcyclopropoxy)-9H-purin-8-yl)-3-chlorophenyl)piperazin-2-one] | 501 | 7940
3 | CC1(Oc2ncnc3c2nc(-c2ccc(/C=C/C(=O)O)cc2Cl)n3Cc2ccccc2)CC1 [Example M4, (E)-3-(4-(9-benzyl-6-(1-methylcyclopropoxy)-9H-purin-8-yl)-3-chlorophenyl)acrylic acid] | 631 | > 10000
4 | CC1(Oc2ncnc3c2nc(-c2ccc(OCCN4CCNCC4=O)cc2Cl)n3Cc2ccccc2)CC1 [Example M5, 1-(2-(4-(9-benzyl-6-(1-methylcyclopropoxy)-9H-purin-8-yl)-3-chlorophenoxy)ethyl)piperazin-2-one] | 100 | > 10000
5 | CN(C)C(=O)c1ccc(-c2nc3c(OC4(C)CC4)ncnc3n2Cc2ccccc2)c(Cl)c1 [Example N1, 4-(9-benzyl-6-(1-methylcyclopropoxy)-9H-purin-8-yl)-3-chloro-N,N-dimethylbenzamide] | 200 | > 10000
6 | CNC(=O)c1ccc(-c2nc3c(OC4(C)CC4)ncnc3n2Cc2ccccc2)c(Cl)c1 [Example N2, 4-(9-benzyl-6-(1-methylcyclopropoxy)-9H-purin-8-yl)-3-chloro-N-methylbenzamide] | 251 | > 10000
7 | CC1(Oc2ncnc3c2nc(-c2ccc(C(=O)N4CCNCC4)cc2Cl)n3Cc2ccccc2)CC1 [Example N3, (4-(9-benzyl-6-(1-methylcyclopropoxy)-9H-purin-8-yl)-3-chlorophenyl)(piperazin-1-yl)methanone] | 794 | > 10000
8 | CC1(Oc2ncnc3c2nc(-c2ccc(C(N)=O)cc2Cl)n3Cc2ccccc2)CC1 [Example N4, 4-(9-benzyl-6-(1-methylcyclopropoxy)-9H-purin-8-yl)-3-chlorobenzamide] | 200 | > 10000
9 | CC1(Oc2ncnc3c2nc(-c2ccc(CN4CCCC4)cc2Cl)n3Cc2ccccc2)CC1 [Example N5, 9-benzyl-8-(2-chloro-4-(pyrrolidin-1-ylmethyl)phenyl)-6-(1-methylcyclopropoxy)-9H-purine] | 100 | 3980
10 | CC1(Oc2ncnc3c2nc(-c2ccc(CN4CCNCC4)cc2Cl)n3Cc2ccccc2)CC1 [Example N6, 9-benzyl-8-(2-chloro-4-(piperazin-1-ylmethyl)phenyl)-6-(1-methylcyclopropoxy)-9H-purine] | 100 | 3980
11 | CC1(Oc2ncnc3c2nc(-c2ccc(CN)cc2Cl)n3Cc2ccccc2)CC1 [Example N7, (4-(9-benzyl-6-(1-methylcyclopropoxy)-9H-purin-8-yl)-3-chlorophenyl)methanamine] | 631 | 6310
12 | COc1ccc(-c2nc3c(OC4(C)CC4)ncnc3n2Cc2ccccc2)c(Cl)c1 [Example N8, 9-Benzyl-8-(2-chloro-4-methoxyphenyl)-6-(1-methylcyclopropoxy)-9H-purine] | 251 | > 10000
13 | COc1ncccc1-c1nc2c(OC3(C)CC3)ncnc2n1Cc1ccccc1 [Example N9, 9-benzyl-8-(2-methoxypyridin-3-yl)-6-(1-methylcyclopropoxy)-9H-purine] | 1260 | > 10000
14 | CC1(Oc2cccc3c2nc(-c2ccc(OCCN4CCNCC4)cc2Cl)n3Cc2ccccn2)CCC1 [Example P1, 2-(2-chloro-4-(2-(piperazin-1-yl)ethoxy)phenyl)-4-(1-methylcyclobutoxy)-1-(pyridin-2-ylmethyl)-1H-benzo[d]imidazole] | 1260 | > 10000
15 | CC1(Oc2cccc3c2nc(-c2ccc(OCCN4CCNCC4)cc2Cl)n3Cc2ccccc2)CCC1 [Example P2, 1-benzyl-2-(2-chloro-4-(2-(piperazin-1-yl)ethoxy)phenyl)-4-(1-methylcyclobutoxy)-1H-benzo[d]imidazole] | 794 | 2510
16 | CC1(Oc2ccnc3c2nc(-c2ccc(OCCN4CCNCC4)cc2Cl)n3Cc2ccccn2)CCC1 [Example P3, 2-(2-chloro-4-(2-(piperazin-1-yl)ethoxy)phenyl)-7-(1-methylcyclobutoxy)-3-(pyridin-2-ylmethyl)-3H-imidazo[4,5-b]pyridine] | 2000 | > 10000
17 | CC1(Oc2ccnc3c2nc(-c2ccc(OCCN4CCNCC4)cc2Cl)n3Cc2ccccc2)CCC1 [Example P4, 3-benzyl-2-(2-chloro-4-(2-(piperazin-1-yl)ethoxy)phenyl)-7-(1-methylcyclobutoxy)-3H-imidazo[4,5-b]pyridine] | 316 | 1260
18 | C#CC1(Oc2ncnc3c2nc(-c2ccc(OCCN4CCNCC4)cc2Cl)n3Cc2ccccc2)CC1 [Example Q1, 9-benzyl-8-(2-chloro-4-(2-(piperazin-1-yl)ethoxy)phenyl)-6-(1-ethynylcyclopropoxy)-9H-purine] | 316 | > 10000
19 | CCC1(Oc2ncnc3c2nc(-c2ccc(OCCN4CCNCC4)cc2Cl)n3Cc2ccccc2)CC1 [Example Q2, 9-benzyl-8-(2-chloro-4-(2-(piperazin-1-yl)ethoxy)phenyl)-6-(1-ethylcyclopropoxy)-9H-purine] | 398 | 2000
20 | C#CC1(Oc2ncnc3c2nc(-c2ccc(OCCN4CCNCC4)cc2Cl)n3Cc2ccccc2)CCC1 [Example Q3, 9-benzyl-8-(2-chloro-4-(2-(piperazin-1-yl)ethoxy)phenyl)-6-(1-ethynylcyclobutoxy)-9H-purine] | 251 | 5010
21 | Clc1cccc(Cn2c(-c3ccc(OCCN4CCNCC4)cc3Cl)nc3c(OC4CC4)ncnc32)c1 [Example Q4, 8-(2-chloro-4-(2-(piperazin-1-yl)ethoxy)phenyl)-9-(3-chlorobenzyl)-6-cyclopropoxy-9H-purine] | 200 | 2000
22 | N#CC1(Oc2ncnc3c2nc(-c2ccc(OCCN4CCNCC4)cc2Cl)n3Cc2cccc(Cl)c2)CC1 [Example Q5, 1-((8-(2-chloro-4-(2-(piperazin-1-yl)ethoxy)phenyl)-9-(3-chlorobenzyl)-9H-purin-6-yl)oxy)cyclopropane-1-carbonitrile] | 158 | 6310
23 | CC1(Oc2ncnc3c2nc(-c2ccc(OCCN4CC5(CC(O)C5)C4)cc2Cl)n3Cc2cc(Cl)ccn2)CC1 [Example R1, 2-(2-(3-chloro-4-(9-((4-chloropyridin-2-yl)methyl)-6-(1-methylcyclopropoxy)-9H-purin-8-yl)phenoxy)ethyl)-2-azaspiro[3.3]heptan-6-ol] | 126 | > 10000
24 | CC1(Oc2ncnc3c2nc(-c2ccc(OCCN4CC[C@@H](O)C4)cc2Cl)n3Cc2cc(Cl)ccn2)CC1 [Example R2, (R)-1-(2-(3-chloro-4-(9-((4-chloropyridin-2-yl)methyl)-6-(1-methylcyclopropoxy)-9H-purin-8-yl)phenoxy)ethyl)pyrrolidin-3-ol] | 126 | > 10000
